Our source for the melting point values is patent US7700786B2, “Pyrazole derivative, intermediate therefor, processes for producing these, and herbicide containing these as active ingredient” (Sagami Chemical Research Center, priority 2001, dated 2010).

As a reminder, the melting point is the temperature, or range, at which the solid turns liquid.

With `Cc1cc(Oc2c([N+](=O)[O-])cc([N+](=O)[O-])cc2C(F)(F)F)n[nH]1`, the melting point is 145 to 147 °C.
`CNC(=S)n1nc(Oc2ncc(C(F)(F)F)cc2Cl)cc1C`: the melting point lay in the range of 63 to 65 °C.
`CCc1c(Oc2ncc(C(F)(F)F)cc2Cl)nn(C(=O)NC)c1C` had a melting point of 84 to 86 °C.
Next, `CCc1cc(Oc2ncc(C(F)(F)F)cc2Cl)nn1C(=O)NC`: 85 to 87 °C; `CNC(=O)n1nc(Oc2c(Cl)cc(C(F)(F)F)cc2Cl)cc1C`: 113 to 114 °C; `CNC(=O)n1nc(Oc2c(F)cc(C(F)(F)F)cc2Cl)cc1C`: 87 to 88 °C.
As for `CCNC(=O)n1nc(Oc2c([N+](=O)[O-])cc([N+](=O)[O-])cc2C(F)(F)F)cc1C`, the figure is 169 to 171 °C; as for `CNC(=O)n1nc(Oc2ccc(C(F)(F)F)cc2[N+](=O)[O-])c(C)c1C`, 117 to 119 °C.
As for `CNC(=O)n1nc(Oc2ccc([N+](=O)[O-])cc2C(F)(F)F)c(C)c1C`, the figure is 113 to 115 °C; as for `CCc1c(Oc2ccc(C(F)(F)F)cc2[N+](=O)[O-])nn(C(=O)NC)c1C`, 81 to 82 °C.
For `CCc1c(Oc2ccc([N+](=O)[O-])cc2C(F)(F)F)nn(C(=O)NC)c1C`, the melting point was 96 to 97 °C.
As for `Cc1c(Cl)c(Oc2c(Cl)cc(C(F)(F)F)cc2Cl)nn1C(=O)NCCCl`, the figure is 141 to 143 °C.
As for `CCc1cc(Oc2ccc(C(F)(F)F)cc2[N+](=O)[O-])nn1C(=O)NC`, the figure is 89 to 91 °C; as for `CCc1cc(Oc2ccc([N+](=O)[O-])cc2C(F)(F)F)nn1C(=O)NC`, 97 to 100 °C.
As for `CNC(=O)n1nc(Oc2ccc(C(F)(F)F)cc2[N+](=O)[O-])cc1C(F)(F)F`, the figure is 102 to 104 °C.
In the case of `CCNC(=S)n1nc(Oc2c(F)cc(C(F)(F)F)cc2Cl)cc1C`, the melting point was 114 to 115 °C.
Next, `Cc1cc(Oc2ccccc2C(F)(F)F)nn1C(=O)Nc1ccccc1`: 87 to 89 °C; `Cc1cc(Oc2ccc([N+](=O)[O-])c(C)c2)n[nH]1` [Compound 1-4, 5-methyl-3-(4-nitro-3-methylphenyloxy)pyrazole]: 114 to 117 °C.
Next, `CCOc1cc(Oc2cc(C)[nH]n2)ccc1[N+](=O)[O-]` [Compound 1-6, 3-(3-ethoxy-4-nitrophenyloxy)-5-methylpyrazole]: 123 to 124 °C.
Next, `Cc1cc(Oc2c(Cl)cc(C(F)(F)F)cc2Cl)n[nH]1` [Compound 1-17, 3-(2,6-dichloro-4-trifluoromethylphenyloxy)-5-methylpyrazole]: 153 to 155 °C.
Turning to `Cc1[nH]nc(Oc2c(Cl)cc(C(F)(F)F)cc2Cl)c1Cl` [Compound 1-18, 4-chloro-3-(2,6-dichloro-4-trifluoromethylphenyloxy)-5-methylpyrazole], the melting point fell in the range of 156 to 158 °C.
Next, `Cc1cc(Oc2c(F)cc(C(F)(F)F)cc2Cl)n[nH]1` [Compound 1-19, 3-(2-chloro-6-fluoro-4-trifluoromethylphenyloxy)-5-methylpyrazole]: 171 to 174 °C; `Cc1cc(Oc2c(Cl)cc(C(F)(F)F)cc2[N+](=O)[O-])n[nH]1` [Compound 1-21, 3-(2-chloro-6-nitro-4-trifluoromethylphenyloxy)-5-methylpyrazole]: 120 to 123 °C.
Next, `Cc1cc(Oc2ccc([N+](=O)[O-])c(Cl)c2)n[nH]1` [Compound 1-23, 3-(3-chloro-4-nitrophenyloxy)-5-methylpyrazole]: 91 to 93 °C; `Cc1cc(Oc2ccc([N+](=O)[O-])c(F)c2)n[nH]1` [Compound 1-26, 3-(3-fluoro-4-nitrophenyloxy)-5-methylpyrazole]: 80 to 83 °C; `Cc1cc(Oc2ccc(F)cc2[N+](=O)[O-])n[nH]1` [Compound 1-29, 3-(4-fluoro-2-nitrophenyloxy)-5-methylpyrazole]: 81 to 84 °C.
`Cc1cc(Oc2ccc(C#N)cc2C(F)(F)F)n[nH]1` [Compound 1-30, 3-(4-cyano-2-trifluoromethylphenyloxy)-5-methylpyrazole] showed a melting point of 123 to 125 °C.
As for `Cc1cc(Oc2ccc(N)cc2C(F)(F)F)n[nH]1` [Compound 1-37, 3-(4-amino-2-trifluoromethylphenyloxy)-5-methylpyrazole], the figure is 143 to 145 °C.
As for `Cc1cc(Oc2ccc([N+](=O)[O-])c(C(F)(F)F)c2)n[nH]1` [Compound 1-42, 5-methyl-3-(4-nitro-3-trifluoromethylphenyloxy)pyrazole], the figure is 96 to 98 °C.
For the compound `Cc1cc(Oc2ccc(C(F)(F)F)cc2[N+](=O)[O-])n[nH]1` [Compound 1-44, 5-methyl-3-(2-nitro-4-trifluoromethylphenyloxy)pyrazole], the melting point lay in the range of 89 to 91 °C.
Next, `Cc1cc(Oc2ccc([N+](=O)[O-])cc2)n[nH]1` [Compound 1-47, 5-methyl-3-(4-nitrophenyloxy)pyrazole]: 124 to 125 °C; `Cc1cc(Oc2ncc(C(F)(F)F)cc2Cl)n[nH]1` [Compound 2-5, 3-(3-chloro-5-trifluoromethylpyridin-2-yloxy)-5-methylpyrazole]: 93 to 95 °C; `Cc1cc(Oc2ncc(C(F)(F)F)cc2Cl)nn1C(=O)N(C)C` [Compound 4-10, N,N-Dimethyl-3-(3-chloro-5-trifluoromethylpyridin-2-yloxy)-5-methylpyrazole-1-carboxamide]: 102 to 104 °C.
Next, `CCNC(=O)n1nc(Oc2ncc(Cl)cc2Cl)cc1C` [Compound 4-15, N-ethyl-3-(3,5-dichloropyridin-2-yloxy)-5-methylpyrazole-1-carboxamide]: 74 to 76 °C; `Cc1cc(Oc2ncc(C(F)(F)F)cc2Cl)nn1C(=O)N(C(C)C)C(C)C` [Compound 4-27, N,N-diisopropyl-3-(3-chloro-5-trifluoromethylpyridin-2-yloxy)-5-methylpyrazole-1-carboxamide]: 58 to 60 °C; `C=CNC(=S)n1nc(Oc2ncc(C(F)(F)F)cc2Cl)cc1C` [Compound 4-41, N-vinyl-3-(3-chloro-5-trifluoromethylpyridin-2-yloxy)-5-methylpyrazole-1-carbothioamide]: 90 to 92 °C.
As for `CCNC(=O)n1nc(Oc2ncc(C(F)(F)F)cc2Cl)c(Cl)c1C` [Compound 4-67, N-ethyl-4-chloro-3-(3-chloro-5-trifluoromethylpyridin-2-yloxy)-5-methylpyrazole-1-carboxamide], the figure is 111 to 112 °C; as for `CCNC(=O)n1nc(Oc2ncc(C(F)(F)F)cc2Cl)c(Br)c1C` [Compound 4-78, N-ethyl-4-bromo-3-(3-chloro-5-trifluoromethylpyridin-2-yloxy)-5-methylpyrazole-1-carboxamide], 123 to 125 °C; as for `Cc1c(Oc2ncc(C(F)(F)F)cc2Cl)nn(C(=O)NC(C)C)c1C` [Compound 4-82, N-isopropyl-3-(3-chloro-5-trifluoromethylpyridin-2-yloxy)-4,5-dimethylpyrazole-1-carboxamide], 78 to 80 °C.
Consider `CCNC(=O)n1nc(Oc2ncc(C(F)(F)F)cc2Cl)c(CC)c1C` [Compound 4-85, N-ethyl-3-(3-chloro-5-trifluoromethylpyridin-2-yloxy)-4-ethyl-5-methylpyrazole-1-carboxamide], for which the melting point fell in the range of 101 to 102 °C.
Compound `CCNC(=O)n1nc(Oc2ncc(C(F)(F)F)cc2Cl)cc1CC` [Compound 4-88, N-ethyl-3-(3-chloro-5-trifluoromethylpyridin-2-yloxy)-5-ethylpyrazole-1-carboxamide] gave a melting point of 85 to 86 °C.
Next, `CCc1c(Cl)c(Oc2ncc(C(F)(F)F)cc2Cl)nn1C(=O)NC` [Compound 4-89, N-methyl-4-chloro-3-(3-chloro-5-trifluoromethylpyridin-2-yloxy)-5-ethylpyrazole-1-carboxamide]: 88 to 89 °C; `CNC(=O)n1nc(Oc2ncc(C(F)(F)F)cc2Cl)cc1C(F)(F)F` [Compound 4-91, N-methyl-3-(3-chloro-5-trifluoromethylpyridin-2-yloxy)-5-trifluoromethylpyrazole-1-carboxamide]: 61 to 63 °C; `CCNC(=O)n1nc(Oc2ncc(C(F)(F)F)cc2Cl)cc1C(F)(F)F` [Compound 4-93, N-ethyl-3-(3-chloro-5-trifluoromethylpyridin-2-yloxy)-5-trifluoromethylpyrazole-1-carboxamide]: 52 to 54 °C.
As for `CCNC(=O)n1nc(Oc2ccc([N+](=O)[O-])cc2)cc1C` [Example 54, N-ethyl-5-methyl-3-(4-nitrophenyloxy)pyrazole-1-carboxamide], the figure is 105 to 107 °C.
Next, `CCNC(=O)n1nc(Oc2ccc(F)cc2[N+](=O)[O-])cc1C` [Example 85, N-ethyl-3-(4-fluoro-2-nitrophenyloxy)-5-methylpyrazole-1-carboxamide]: 81 to 84 °C; `Cc1cc(Oc2ccc(C(F)(F)F)cc2[N+](=O)[O-])nn1C(=O)NC(C)(C)C` [Example 86, N-tert-butyl-5-methyl-3-(2-nitro-4-trifluoromethylphenyloxy)-pyrazole-1-carboxamide]: 104 to 106 °C; `CCNC(=O)n1nc(Oc2ccc(C#N)cc2C(F)(F)F)cc1C` [Example 95, N-ethyl-3-(4-cyano-2-trifluoromethylphenyloxy)-5-methylpyrazole-1-carboxamide]: 103 to 105 °C.
Compound `CCNC(=O)n1nc(Oc2ccc([N+](=O)[O-])c(C)c2)cc1C` [Example 96, N-ethyl-5-methyl-3-(3-methyl-4-nitrophenyloxy)pyrazole-1-carboxamide] returned a melting point of 67 to 69 °C.
Next, `CCNC(=O)n1nc(Oc2ccc([N+](=O)[O-])c(OCC)c2)cc1C` [Example 98, N-ethyl-3-(3-ethoxy-4-nitrophenyloxy)-5-methylpyrazole-1-carboxamide]: 110 to 112 °C.
